Patent US20130164338A1 (priority 2010, published 2013)

Tested on: S. pneumoniae (Serotype 3; ATCC 6303)
Test: S. pneumoniae mouse pneumonia model, nebulized salt formulations
Assay type: in vivo, C57BL/6 mice
Conditions: nebulized 2 h before infection; ~0.72 mg Ca/kg, ampicillin ~3 mg/kg

## CC1(C)S[C@@H]2[C@H](NC(=O)[C@H](N)c3ccccc3)C(=O)N2[C@H]1C(=O)O [ampicillin]
  reduction of bacterial titers in lungs relative to saline control: 33 fold
